Entries after “also recorded” stand apart in the source; their conditions may differ.
Tests used:
Assay type in all cases: biochemical
S1P receptors [1] = test: [γ-35S]GTP binding assay, recombinant S1P receptors in general; details: each receptor
Protocol: (§1) The same results were obtained regardless of whether the recombinant receptor used exogenous G proteins (HEK293T cells) or endogenous G proteins (RH7777 cells). In addition, insect Sf9 cells infected with recombinant baculovirus encoding receptors (e.g. […] The Sf9 cell and HEK293T cell membranes gave similar results. Furthermore, the activities measured in the broken cell assay predicted the responses seen in whole cell assays. […] After incubating for 30 minutes at 30° C., bound radionuclide was separated from free by filtration through Whatman GF/C paper using a Brandel Cell Harvester (Gaithersburg, Md.). Assay of cAMP accumulation was performed as described previously (See Im et al., J. Biol. […] Assays were conducted on populations of 5×10^5 cells stimulated with 1 μM forskolin in the presence of the phosphodiesterase inhibitor isomethylbutylxanthine (IBMX, 1 mM) for 15 minutes. cAMP was measured by automated radioimmunoassay.

zS1P1 = biological target: T1, zS1P1 (Danio rerio, UniProt Q9DDK4); test: [γ-35S]GTP binding assay, zebrafish S1P1 overexpressed in rat RH-7777 cells; details: read-out: EC50 Values (nM) for S1P Analogues at Recombinant S1P Receptors, zS1P1; GTPγS binding; zebrafish S1P1 overexpressed rat RH-7777
T1 construct: expressed in transfected cells; host or cells: rat hepatoma RH-7777 cells
T1 sequence (Q9DDK4 1-362): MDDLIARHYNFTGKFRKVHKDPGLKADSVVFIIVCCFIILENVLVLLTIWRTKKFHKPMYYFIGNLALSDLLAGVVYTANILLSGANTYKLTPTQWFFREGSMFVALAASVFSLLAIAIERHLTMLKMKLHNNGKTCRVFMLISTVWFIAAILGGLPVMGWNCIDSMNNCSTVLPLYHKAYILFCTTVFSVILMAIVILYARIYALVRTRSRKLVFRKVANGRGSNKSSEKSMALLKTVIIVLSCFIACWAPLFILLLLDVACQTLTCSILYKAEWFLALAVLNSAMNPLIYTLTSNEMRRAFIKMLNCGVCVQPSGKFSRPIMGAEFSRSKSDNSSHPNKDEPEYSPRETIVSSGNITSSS
Protocol: (§2) After incubating for 30 minutes at 30° C., bound radionuclide was separated from free by filtration through Whatman GF/C paper using a Brandel Cell Harvester (Gaithersburg, Md.).
Rat hepatoma RH7777 cell monolayers were transfected with human or mouse S1P5/pCR3.1 DNA using the calcium phosphate precipitate method, and clonal populations expressing the neomycin phosphotransferase gene were selected by addition of geneticin (G418) to the culture medium. The RH7777 cells were grown in monolayers at 37° C. in a 5% CO2/95% air atmosphere in growth medium consisting of 90% MEM, […], 2 mM glutamine, and 1 mM sodium pyruvate.
(§3) Assay of cAMP accumulation was performed as described previously (See Im et al., J. Biol. Chem. 275, 14281-14286 (2000), the disclosure of which is incorporated herein). Assays were conducted on populations of 5×10^5 cells stimulated with 1 μM forskolin in the presence of the phosphodiesterase inhibitor isomethylbutylxanthine (IBMX, 1 mM) for 15 minutes. cAMP was measured by automated radioimmunoassay. The GTPγS studies were performed using zebrafish S1P1 overexpressed rat RH-7777 and human hS1P1, hS1P2, hS1P3 and hS1P5 overexpressed human HEK293 cells.

mS1P5 = biological target: T2, mS1P5 (Mus musculus, UniProt Q91X56); test: [γ-35S]GTP binding assay, mouse S1P5; details: read-out: EC50 Values (nM) for S1P Analogues at Recombinant S1P Receptors, mS1P5, GTPγS binding
T2 construct: expressed in transfected cells; host or cells: HEK293T cells (transient)
T2 sequence (Q91X56 whole entry): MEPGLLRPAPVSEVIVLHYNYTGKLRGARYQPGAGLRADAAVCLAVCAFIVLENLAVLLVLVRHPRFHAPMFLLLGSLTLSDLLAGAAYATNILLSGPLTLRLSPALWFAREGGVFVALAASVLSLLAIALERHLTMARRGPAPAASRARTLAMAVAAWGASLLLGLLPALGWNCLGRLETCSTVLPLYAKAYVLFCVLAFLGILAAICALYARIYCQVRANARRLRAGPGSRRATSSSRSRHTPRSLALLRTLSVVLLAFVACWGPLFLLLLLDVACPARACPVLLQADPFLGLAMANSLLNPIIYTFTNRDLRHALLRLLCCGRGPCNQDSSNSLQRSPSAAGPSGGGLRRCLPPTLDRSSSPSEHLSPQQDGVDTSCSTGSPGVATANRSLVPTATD
Protocol: (§4) Human or mouse S1P5 DNA was mixed with an equal amount of DNA encoding a rat Gi2R protein as well as DNAs encoding cow β1 and γ2 proteins and used to transfect monolayers of HEK293T cells using the calcium phosphate precipitate method. After 60 hours, cells were harvested, and microsomes were prepared, aliquoted, and stored at −70° C. until use.
as §2, §3

hS1P1 = biological target: T3, hS1P1 (Homo sapiens, UniProt P21453); test: [γ-35S]GTP binding assay, HEK293T cell membranes, S1P1; details: GTPγS binding; for EC50: read-out: EC50 Values (nM) for S1P Analogues at Recombinant S1P Receptors, hS1P1, overexpressed human HEK293 cells
T3 construct: expressed in transfected cells; host or cells: HEK293T cells (transient)
T3 sequence (P21453 whole entry): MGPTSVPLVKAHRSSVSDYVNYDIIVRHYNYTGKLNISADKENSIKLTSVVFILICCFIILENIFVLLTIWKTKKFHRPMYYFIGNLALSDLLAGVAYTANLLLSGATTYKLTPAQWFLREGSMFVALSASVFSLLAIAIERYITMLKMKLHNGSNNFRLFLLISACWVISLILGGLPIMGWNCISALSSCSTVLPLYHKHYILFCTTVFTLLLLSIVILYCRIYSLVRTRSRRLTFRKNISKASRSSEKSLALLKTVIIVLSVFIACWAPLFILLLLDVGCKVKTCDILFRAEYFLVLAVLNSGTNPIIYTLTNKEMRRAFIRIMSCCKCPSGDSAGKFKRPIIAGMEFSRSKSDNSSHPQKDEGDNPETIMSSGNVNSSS
Protocol: as §4, §2, §3
(§5) An additional series of compounds was tested using the GTPCS binding assay described in Example 2 and in Im et al., J. Biol. Chem. 275, 14281-14286 (2000), the disclosure of which is incorporated herein).

hS1P5 = biological target: T4, hS1P5 (Homo sapiens, UniProt Q9H228); test: [γ-35S]GTP binding assay, HEK293T cell membranes, S1P5; details: read-out: EC50 Values (nM) for S1P Analogues at Recombinant S1P Receptors, hS1P5; GTPγS binding; overexpressed human HEK293 cells
T4 construct: expressed in transfected cells; host or cells: HEK293T cells (transient, calcium phosphate)
T4 sequence (Q9H228 whole entry): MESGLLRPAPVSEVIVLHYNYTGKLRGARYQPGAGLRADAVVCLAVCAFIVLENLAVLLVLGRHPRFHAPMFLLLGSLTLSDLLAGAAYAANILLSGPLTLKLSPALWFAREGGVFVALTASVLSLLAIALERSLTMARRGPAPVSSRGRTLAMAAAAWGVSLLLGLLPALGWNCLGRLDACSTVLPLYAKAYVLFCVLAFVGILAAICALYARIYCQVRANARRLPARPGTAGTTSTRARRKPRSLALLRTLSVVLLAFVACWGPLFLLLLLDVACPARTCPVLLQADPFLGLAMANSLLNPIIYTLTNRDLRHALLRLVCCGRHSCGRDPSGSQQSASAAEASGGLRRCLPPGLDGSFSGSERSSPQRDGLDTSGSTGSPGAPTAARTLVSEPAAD
Protocol: as §4, §2, §3, §5

hS1P3 = biological target: T5, hS1P3 (Homo sapiens, UniProt Q99500); test: [γ-35S]GTP binding assay, HEK293T cell membranes, S1P3; details: GTPγS binding; for EC50: read-out: EC50 Values (nM) for S1P Analogues at Recombinant S1P Receptors, hS1P3, overexpressed human HEK293 cells
T5 construct: expressed in transfected cells; host or cells: HEK293T cells (transient)
T5 sequence (Q99500 whole entry): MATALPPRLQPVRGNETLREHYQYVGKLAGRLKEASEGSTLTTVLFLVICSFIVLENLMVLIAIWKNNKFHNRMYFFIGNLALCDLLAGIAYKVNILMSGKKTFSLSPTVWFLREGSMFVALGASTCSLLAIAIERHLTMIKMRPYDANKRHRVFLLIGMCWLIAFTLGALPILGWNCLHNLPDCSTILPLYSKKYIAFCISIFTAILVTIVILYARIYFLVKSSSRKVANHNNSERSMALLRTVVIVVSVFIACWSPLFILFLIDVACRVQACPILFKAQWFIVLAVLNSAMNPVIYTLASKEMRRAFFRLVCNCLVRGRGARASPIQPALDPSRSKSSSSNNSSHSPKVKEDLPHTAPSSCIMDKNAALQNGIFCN
Protocol: as §4, §2, §3, §5

hS1P2 = biological target: T6, hS1P2 (Homo sapiens, UniProt O95136); test: [γ-35S]GTP binding assay, HEK293T cell membranes, S1P2; details: GTPγS binding; for EC50: read-out: EC50 Values (nM) for S1P Analogues at Recombinant S1P Receptors, hS1P2, overexpressed human HEK293 cells
T6 construct: expressed in transfected cells; host or cells: HEK293T cells (transient)
T6 sequence (O95136 whole entry): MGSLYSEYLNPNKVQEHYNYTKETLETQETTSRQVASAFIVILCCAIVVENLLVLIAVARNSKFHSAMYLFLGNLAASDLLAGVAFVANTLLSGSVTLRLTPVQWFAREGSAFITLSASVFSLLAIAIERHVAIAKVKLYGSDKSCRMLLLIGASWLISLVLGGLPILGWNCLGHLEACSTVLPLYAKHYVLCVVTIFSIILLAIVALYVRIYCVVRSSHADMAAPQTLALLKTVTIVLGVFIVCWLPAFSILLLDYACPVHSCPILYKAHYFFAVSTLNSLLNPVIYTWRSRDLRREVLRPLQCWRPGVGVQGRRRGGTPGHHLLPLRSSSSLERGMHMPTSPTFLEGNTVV
Protocol: as §4, §2, §3, §5

S1P receptors [2] = tested on: T7, S1P receptors; test: [γ-35S]GTP binding assay, recombinant S1P receptors in general; details: various S1P receptors
T7 construct: other: various S1P receptors
Protocol: as §1

hS1P4 = biological target: T8, hS1P4 (Homo sapiens, UniProt O95977); test: [γ-35S]GTP binding assay, HEK293T cell membranes, S1P4; details: GTPγS binding
T8 construct: expressed in transfected cells; host or cells: HEK293T cells (transient)
T8 sequence (O95977 1-384): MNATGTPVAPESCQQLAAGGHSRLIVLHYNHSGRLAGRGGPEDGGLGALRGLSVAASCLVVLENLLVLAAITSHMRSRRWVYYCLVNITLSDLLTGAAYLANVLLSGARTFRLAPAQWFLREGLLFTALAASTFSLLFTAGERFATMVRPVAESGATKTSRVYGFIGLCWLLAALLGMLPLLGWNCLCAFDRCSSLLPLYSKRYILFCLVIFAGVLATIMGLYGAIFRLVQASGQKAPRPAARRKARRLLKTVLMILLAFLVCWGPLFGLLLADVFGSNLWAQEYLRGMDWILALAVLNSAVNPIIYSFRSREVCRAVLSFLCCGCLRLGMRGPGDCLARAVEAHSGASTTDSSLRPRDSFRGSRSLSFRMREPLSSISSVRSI
Protocol: as §2, §5

CCCCCCCCCCCCC/C=C/[C@@H](O)[C@@H](N)COP(=O)(O)O [Compound S1P, Sphingosine-1-phosphate, reference compound]
increase of GTPγS binding at each receptor (S1P receptors [1]): 2-5 fold

CCCCCCCCCCCCCCNC(=O)[C@@H](N)COP(=O)(O)O [VPC22051]
EC50 (zS1P1): > 5000 nM | EC50 (mS1P5): > 5000 nM | EC50 (hS1P1): 322 nM | EC50 (hS1P5): > 5000 nM | EC50 (hS1P3): 602 nM | EC50 (hS1P2): 2760 nM

CCCCCCCCCCCCCCOC(=O)[C@@H](N)COP(=O)(O)O [VPC22053]
EC50 (zS1P1): > 5000 nM | EC50 (mS1P5): 2010 nM | less potent than enantiomer VPC22135 at the S1P1 receptor (hS1P1): more than 1 log order | EC50 (hS1P1): 397 nM | EC50 (hS1P5): 1610 nM | less potent than enantiomer VPC22135 at the S1P3 receptor (hS1P3): more than 1 log order | EC50 (hS1P3): 862 nM | EC50 (hS1P2): 2680 nM

CCCCCCCCCCCCCCNC(=O)[C@H](N)COP(=O)(O)O [VPC22135]
potency compared with S1P at the human S1P1 receptor (hS1P1): approached the potency of S1P | potency compared with S1P at the human S1P3 receptor (hS1P3): approached the potency of S1P

CCCCCCCCc1cccc(NC(=O)[C@H](N)COP(=O)(O)O)c1 [VPC23019]
antagonism at S1P1 (hS1P1; competition with S1P): antagonism | agonism or inverse agonism (antagonism) at the S1P3 receptor (hS1P3): inverse agonists | activity at the S1P2 receptor (hS1P2): inactive; also recorded: failed to show significant activity

CCCCCCc1cccc(NC(=O)[C@H](N)COP(=O)(O)O)c1 [VPC23031]
agonism or inverse agonism (antagonism) at the S1P3 receptor (hS1P3): inverse agonists | activity at the S1P2 receptor (hS1P2): inactive; also recorded: failed to show significant activity

CCCCCCCCCCc1cccc(NC(=O)[C@H](N)CO)c1 [VPC23065]
agonist activity at S1P receptors (S1P receptors [2]): significant agonist activity | agonist activity at the S1P4 receptor (hS1P4): good agonist activity | activity at the S1P2 receptor (hS1P2): inactive; also recorded: failed to show significant activity

CCCCCCCCCCc1cccc(NC(=O)[C@H](N)COP(=O)(O)O)c1 [VPC23069]
agonism or inverse agonism (antagonism) at the S1P3 receptor (hS1P3): agonism | activity at the S1P2 receptor (hS1P2): inactive; also recorded: failed to show significant activity

CCCCCCCCCc1cccc(NC(=O)[C@H](N)CO)c1 [VPC23075]
agonist activity at S1P receptors (S1P receptors [2]): significant agonist activity | agonist activity at the S1P4 receptor (hS1P4): good agonist activity | activity at the S1P2 receptor (hS1P2): inactive; also recorded: failed to show significant activity

CCCCCCCCCc1cccc(NC(=O)[C@H](N)COP(=O)(O)O)c1 [VPC23079]
agonism or inverse agonism (antagonism) at the S1P3 receptor (hS1P3): agonism | activity at the S1P2 receptor (hS1P2): inactive; also recorded: failed to show significant activity

CCCCCCCCc1ccccc1NC(=O)[C@H](N)CO [VPC23087]
agonist activity at S1P receptors (S1P receptors [2]): significant agonist activity | agonist activity at the S1P4 receptor (hS1P4): good agonist activity | activity at the S1P2 receptor (hS1P2): inactive; also recorded: failed to show significant activity

CCCCCCCCc1ccccc1NC(=O)[C@H](N)COP(=O)(O)O [VPC23089]
agonism or inverse agonism (antagonism) at the S1P3 receptor (hS1P3): inverse agonists | activity at the S1P2 receptor (hS1P2): inactive; also recorded: failed to show significant activity

From patent US7638637B2, “Orally available sphingosine 1-phosphate receptor agonists and antagonists” (University of Virginia Patent Foundation, priority 2003, dated 2009)
